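Five compound concentrations were applied to cells in 96-well plates for 48 hours; endpoints were derived by simple linear interpolation of the resulting dose-response curve. TGI: total growth inhibition.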
Experiments:
Assay in all cases: growth of human tumour cells (NCI), 48 h
COLO 205 colon = system: COLO 205 colon
HOP-62 NSCLC = system: HOP-62 NSCLC
M14 melanoma = system: M14 melanoma
MALME-3M melanoma = system: MALME-3M melanoma
MOLT-4 leukemia = system: MOLT-4 leukemia
OVCAR-5 ovarian = system: OVCAR-5 ovarian
OVCAR-8 ovarian = system: OVCAR-8 ovarian
SK-MEL-2 melanoma = system: SK-MEL-2 melanoma
SK-MEL-5 melanoma = system: SK-MEL-5 melanoma
SW-620 colon = system: SW-620 colon
HCC-2998 colon = system: HCC-2998 colon
HL-60(TB) leukemia = system: HL-60(TB) leukemia
KM12 colon = system: KM12 colon

| Structure (SMILES) | TGI (COLO 205 colon) [µM] | TGI (HOP-62 NSCLC) [µM] | TGI (M14 melanoma) [µM] | TGI (MALME-3M melanoma) [µM] | TGI (MOLT-4 leukemia) [µM] | TGI (OVCAR-5 ovarian) [µM] | TGI (OVCAR-8 ovarian) [µM] | TGI (SK-MEL-2 melanoma) [µM] | TGI (SK-MEL-5 melanoma) [µM] | TGI (SW-620 colon) [µM] | TGI (HCC-2998 colon) [µM] | TGI (HL-60(TB) leukemia) [µM] | TGI (KM12 colon) [µM] |
| --- | --- | --- | --- | --- | --- | --- | --- | --- | --- | --- | --- | --- | --- |
| CC(C)(C)S(=O)OC12CC3CC(CC(C3)C1)C2 (centres undefined) | > 100 | > 100 | > 100 | > 100 | > 100 | > 100 | > 100 | > 100 | > 100 | > 100 |  |  |  |
| COP(=O)(OC)/C(=C\c1cn(C(c2ccccc2)(c2ccccc2)c2ccccc2)cn1)NC(C)=O | > 100 | > 100 | > 100 | > 100 | > 100 | > 100 | > 100 |  |  | > 100 | > 100 | > 100 | > 100 |
| CCOC(=O)c1c(N2CCCC2)[nH]c(=O)c(C(c2cccs2)c2c(O)c(C(=O)OCC)c(N3CCCC3)[nH]c2=O)c1O | > 100 | > 100 | > 100 | > 100 | > 100 | > 100 | > 100 | > 100 | > 100 | > 100 | > 100 |  | > 100 |
| CCN(CC)CCO/N=C1/C=C2CCC3C(CC[C@@]4(C)C3CC[C@]4(C)O)[C@@]2(C)CC1 (some centres undefined) | 14.6 | 21 | 23.8 | 15.6 | 10.2 | 80 | 20.4 | 36.6 | 26 |  | 19 |  | 18.9 |
| CC1=NN=C(N)NC1=CC(Sc1ccc(Cl)cc1)c1c(O)ccc2ccccc12 (centres undefined) | 36.8 | 57.7 | 36.2 | 20.4 | > 84.9 | > 61.9 | 43.6 | 23.2 | 21.2 | > 100 | 32.2 |  | 36.9 |
| CN(C)Cc1cc(C(C)(C)C)cc(C2CCCCC2)c1O | 27.2 | 40 | > 100 | 17.9 | 22.6 | 34.9 | 26.4 | 35 | 27.4 | 30.2 |  | 33.9 | 26.4 |
| N#Cc1sc2c(c1O)c(=O)n(-c1ccccc1)c(=S)n2-c1ccccc1 | > 100 |  | > 100 | > 100 |  | > 100 | > 100 | > 100 | > 100 | > 100 | > 100 | > 100 | > 100 |
| O=C1NC2(CCN(CCCC3(c4ccc(F)cc4)OCCO3)CC2)Oc2ccccc21 | > 100 | > 100 | > 100 | > 100 | > 100 | > 100 | > 100 |  | > 100 | > 100 | > 100 | > 100 | > 100 |
| CC(=O)ON(C(C)=O)c1ccc(-c2nc3ccccc3s2)cc1C | > 100 | > 100 | > 100 | > 100 | > 100 | 55.2 | > 100 | > 100 | > 100 | > 100 | > 100 |  | > 100 |
| COc1ccc(N=[N+]([O-])c2ccc(OC)cc2)cc1 | > 100 | > 100 | > 100 | > 100 | > 100 | > 100 | > 100 | > 100 | > 100 |  | > 100 |  | > 100 |
